This note sets out measurements from patent US8097656B2, “Nitrogenated trans-stilbene analogs, method for the obtention and medical applications thereof” (Dominion Pharmakine S.L, priority 2005, dated 2012).

This experiment deals with MB16 cells. As to the kind of experiment: MB16 hepatic metastasis test after intrasplenic injection. The note with it: 1 mg/Kg/day nasogastrically; for Reduction of the mean density of hepatic metastases: daily, vs control animals, P<0.01; for No. portal metases/No. sinusoidal metastasis (ratio in brackets) / Percentage of focal points w/cavitation (% of total no. of metastatic focal points) / No. portal metases / No. sinusoidal metastasis / Volume of hepatic metastasis (mm^3) / Hepatic focal point density (No. focal points/100 mm^3) / Metastatic cell proliferation index (% cells positive to Ki67 antigen) / Length of angiogenic vessels (μm): day 12; for No. portal metases/No. sinusoidal metastasis (ratio in brackets): control 1; for Percentage of focal points w/cavitation (% of total no. of metastatic focal points): control 13.5 ± 5.0; for No. portal metases / No. sinusoidal metastasis: control 30; for Volume of hepatic metastasis (mm^3): control 60.0 ± 7.5; for Hepatic focal point density (No. focal points/100 mm^3): control 60.0 ± 11; for Metastatic cell proliferation index (% cells positive to Ki67 antigen): control 71.0 ± 5.0; for Length of angiogenic vessels (μm): control 175.0 ± 10. The experiment is classed as in vivo, C57BL/6J mice. Here is the method:
MB16 Hepatic Metastasis Test using C57 BL/6J mice (males 6-8 weeks of age) supplied by IFFA Credo (L'Arbreole, France). The care, maintenance and experimental conditions were carried out in accordance with that which is set forth under EEC Council Directive 86/609 (OJ L 358. 1, Dec. 12, 1987) and the NIH guide for the care and use of laboratory animals (NIH publication 85-23, 1985). In the experiments with the resveratrol and azaresveratrol compounds (Table 1), the animals (10 per group) received 1 mg/Kg/day of the compounds nasogastrically every day up to the time of sacrifice. In the experiments with the JE2:2 compound (FIG. 12), one group of mice (n=10) was given an intraperitoneal injection of 0.5 mg/kg of the JE2:2 compound dissolved in 0.1 ml of PBS. The control group (n=10), was given an intraperitoneal injection of PBS. One hour later, animals were anesthetized and were intrasplenically injected with MB16 cells (3×10^5 cells/mouse). The same treatments, at the same doses, were repeated on days 2, 3, 4, 8, 9, 10 and 11 following tumor injection.
Twelve (12) days later, the livers were removed and processed for the histological study. Firstly, they were fixed in a solution of zinc (0.5 g calcium acetate, 5 g zinc acetate, 5 g zinc chloride and 1000 ml tris buffer, pH 7.4) for 24 hours. Once fixed, they were dehydrated in alcohols of increasing concentrations, and paraffin block were included. Afterward, a minimum of nine (9) cuts 10 μm in thickness were made per liver, leaving a space of 300 μm between every 3 cuts and a 1 mm space between successive groups of 3 cuts. Once the sections had been obtained, they were processed and stained with hematoxylin-eosine. On the one hand, the number, mean diameter, area and position coordinates of each metastasis were quantified by means of an integrated image analysis system (Olympus Microimage 4.0 capture kit) connected to an Olympus BX51TF microscope. With obtained data, metastatic parameters (that is to say, the number of focal points per 100 mm^3 of hepatic tissue) and metastatic volume (that is to say, the volume of liver occupied by metastatic tissue) were calculated as described by Vidal-Vanaclocha et al. [cf. Vidal-Vanaclocha, F., Amézaga, C., Asumendi, A., Kaplanski, G. & Dinarello, C. A. “Interleukin-1 receptor blockade reduces the number and size of murine B 16 melanoma hepatic metastases”, Cancer Research, 1994, vol. 54, pp. 2667-2672]. On the other hand, more cuts were made in the same blocks, and a double marking with CD31 and desmine was performed to calculate the number and length of the angiogenic vessels within the metastases and also to study metastases according to their angiogenic pattern in portal-type expansive metastases (the angiogenic vessels surround the metastases) or sinusoidal type invasive metastases (containing an internal network of angiogenic capillaries). Another parameter that was quantified is the cavitated metastasis percentage. Lastly, immunohistochemical detection of Ki67 antigen was performed to assess the number of tumor cells which proliferated per unit of tumor surface.
To this end, the MB16 cells were intrasplenically injected in C57BL/6J mice (3×10^5 viable cells per animal resuspended in endotoxin-free sterile saline solution), 12 days after which the capacity thereof of development metastasis was determined.
One group of mice (n=7) were administered an intraperitoneal injection of JE2:2 (2.5 mg/kg) 1′ hour prior to tumor cell injection, and the same dose was repeated on days 2, 3, 4, 8, 9, 10 and 11 in following thereto. The group of control mice (n=7) was administered PBS.

As for `Oc1ccc(/N=C/c2cc(O)cc(O)c2)cc1` [azaresveratrol, 5-((E)-(4-Hydroxyphenylimino)methyl)benzene-1,3-diol], the “Reduction of the mean density of hepatic metastases” value turned out to be 46%, the “No. portal metases/No. sinusoidal metastasis (ratio in brackets)” value is on record as 4.09, the “Percentage of focal points w/cavitation (% of total no. of metastatic focal points)” value was 40.0 ± 10% and the No. portal metases is given as 22.5. Also, the No. sinusoidal metastasis is given as 5.5, the “Volume of hepatic metastasis (mm^3)” value was 24.0 ± 9.0 mm^3, the “Hepatic focal point density (No. focal points/100 mm^3)” value worked out at 28.0 ± 10 No. focal points/100 mm^3 and the “Metastatic cell proliferation index (% cells positive to Ki67 antigen)” value is 35.0 ± 10%. In addition, the “Length of angiogenic vessels (μm)” value turned out to be 88.0 ± 21 μm.

Consider `Oc1ccc(C=Cc2cc(O)cc(O)c2)cc1` [resveratrol, reference compound], for which the “Reduction of the mean density of hepatic metastases” value turned out to be 50%, the “No. portal metases/No. sinusoidal metastasis (ratio in brackets)” value came to 3, the “Percentage of focal points w/cavitation (% of total no. of metastatic focal points)” value worked out at 41.5 ± 11% and the No. portal metases stood at 22.5. For the same compound, the No. sinusoidal metastasis came out at 7.5, the “Volume of hepatic metastasis (mm^3)” value amounted to 18.7 ± 7.5 mm^3, the “Hepatic focal point density (No. focal points/100 mm^3)” value came out at 30.0 ± 11 No. focal points/100 mm^3 and the “Metastatic cell proliferation index (% cells positive to Ki67 antigen)” value was determined as 40.0 ± 5.0%. Further, the “Length of angiogenic vessels (μm)” value is recorded as 88.0 ± 23 μm.
